According to patent US20260102397A1, “PHARMACEUTICAL COMPOSITION FOR TREATING LEUKEMIA COMPRISING FLT3 INHIBITOR” (HANMI PHARM. CO., LTD., priority 2020, published 2026):

Columns and labels:
[1] = target: T1, SYK (Homo sapiens, UniProt P43405); assay: Kinase inhibition test, Z'-LYTE; type: biochemical; details: read-out: 50% activity inhibition value (IC50), SYK
T1 construct: purchased Thermo Fisher Scientific
Method: Activity measurement was conducted using LanthaScreen test method (wild type and mutation type FLT3) or Z′-LYTE test method (SYK) developed by Thermo Fisher Scientific. LanthaScreen test method is a method of measuring protein activity by measuring fluorescence resonance energy transfer (FRET) signal under the existence of europium-conjugated antibody on the basis of the binding of Alexa Fluor 647-labelled, ATP-competitive kinase inhibitor (kinase tracer-236) to kinase. Z′-LYTE test method is a method using an enzyme which can cut dephosphorylated substrate, and this method measures the activity of kinase protein by measuring two fluorescent FRET signals attached to each end of peptide substrate. The two experiments were all conducted in 384 well plates under the conditions of 50 mM HEPES pH 7.5, 0.01% BRIJ-35, 10 mM MgCl2, 1 mM EGTA, and 1% DMSO.

[2] = system: MOLM-14 FLT3-ITD/F691L cell strain; assay: Mouse model hypodermically implanted with MOLM-14 FLT3-ITD/F691L cell strain; type: in vivo; details: nude mice, MOLM-14 FLT3-ITD/F691L subcutaneous, 30 mg/kg/day oral once daily
Method: MOLM-14 FLT3-ITD/F691L cell strain was subcutaneously injected into a nude mouse at 3×10^^6 cell/0.15 mL/mouse and the mouse was left to grow.
The control group was administered for 13 days and the drug administration groups were administered for 18 days with each pertinent drug.
The tumor volume (mm^3) of the surviving mice in each group was plotted on the y-axis, whereas the number of days of medication was plotted on the x-axis. In order to evaluate the effects of the administration of drugs, the results of complete response (CR) in which tumor had completely disappeared were checked. […] (*p<0.05, **p<0.01, ***p<0.001, and ****p<0.0001 Sidk's test was conducted after two-way analysis of variance)

## Cc1ccc2c(-c3nc(Nc4cc(CN5C[C@@H](C)N[C@@H](C)C5)cc(C5CC5)c4)ncc3Cl)c[nH]c2c1 [Compound A, 5-chloro-N-(3-cyclopropyl-5-(((3R,5S)-3,5-dimethylpiperazine-1-yl)methyl)phenyl)-4-(6-methyl-1H-indol-3-yl)pyrimidine-2-amin]
[1]
  IC50: 2.9 nM
[2]
  complete response (CR, tumor completely disappeared), day of administration: 12 days
[2]; 18 days, FIG. 1
  volume of tumor compared with Gilteritinib administration group: reduced more significantly
